IC50 and Activity data for 3 compounds are collected here from ChEMBL document CHEMBL4321837, “Discovery of Potent and Orally Effective Dual Janus Kinase 2/FLT3 Inhibitors for the Treatment of Acute Myelogenous Leukemia and Myeloproliferative Neoplasms” (J Med Chem, 2019).

The test system of one experiment is MV4-11. In words: Antiproliferative activity against FLT3-ITD-positive human MV4-11 cells assessed as reduction in cell growth after 72 hrs by MTT assay. It counts as functional, cell-based. The settings on record: MV4-11, 72 h. A general note: Formazan colour is commonly taken as a measure of viable cells.
The test system of the next experiment is MOLM-13. As to the kind of experiment: Antiproliferative activity against FLT3-ITD-positive human MOLM13 cells assessed as reduction in cell growth after 72 hrs by MTT assay. It counts as functional, cell-based. The following applies: MOLM-13, 72 h.
Experiment [1] deals with Tyrosine-protein kinase JAK1 (Homo sapiens, UniProt P23458). In words: Inhibition of human JAK1 (866 to end residues) assessed as residual activity at 100 nM using GEEPLYWSFPAKK as substrate after 40 mins in presence of [gamma33P]-ATP by scintillation counting based radiometric assay relative to control.
Sequence of Tyrosine-protein kinase JAK1 (P23458 whole entry): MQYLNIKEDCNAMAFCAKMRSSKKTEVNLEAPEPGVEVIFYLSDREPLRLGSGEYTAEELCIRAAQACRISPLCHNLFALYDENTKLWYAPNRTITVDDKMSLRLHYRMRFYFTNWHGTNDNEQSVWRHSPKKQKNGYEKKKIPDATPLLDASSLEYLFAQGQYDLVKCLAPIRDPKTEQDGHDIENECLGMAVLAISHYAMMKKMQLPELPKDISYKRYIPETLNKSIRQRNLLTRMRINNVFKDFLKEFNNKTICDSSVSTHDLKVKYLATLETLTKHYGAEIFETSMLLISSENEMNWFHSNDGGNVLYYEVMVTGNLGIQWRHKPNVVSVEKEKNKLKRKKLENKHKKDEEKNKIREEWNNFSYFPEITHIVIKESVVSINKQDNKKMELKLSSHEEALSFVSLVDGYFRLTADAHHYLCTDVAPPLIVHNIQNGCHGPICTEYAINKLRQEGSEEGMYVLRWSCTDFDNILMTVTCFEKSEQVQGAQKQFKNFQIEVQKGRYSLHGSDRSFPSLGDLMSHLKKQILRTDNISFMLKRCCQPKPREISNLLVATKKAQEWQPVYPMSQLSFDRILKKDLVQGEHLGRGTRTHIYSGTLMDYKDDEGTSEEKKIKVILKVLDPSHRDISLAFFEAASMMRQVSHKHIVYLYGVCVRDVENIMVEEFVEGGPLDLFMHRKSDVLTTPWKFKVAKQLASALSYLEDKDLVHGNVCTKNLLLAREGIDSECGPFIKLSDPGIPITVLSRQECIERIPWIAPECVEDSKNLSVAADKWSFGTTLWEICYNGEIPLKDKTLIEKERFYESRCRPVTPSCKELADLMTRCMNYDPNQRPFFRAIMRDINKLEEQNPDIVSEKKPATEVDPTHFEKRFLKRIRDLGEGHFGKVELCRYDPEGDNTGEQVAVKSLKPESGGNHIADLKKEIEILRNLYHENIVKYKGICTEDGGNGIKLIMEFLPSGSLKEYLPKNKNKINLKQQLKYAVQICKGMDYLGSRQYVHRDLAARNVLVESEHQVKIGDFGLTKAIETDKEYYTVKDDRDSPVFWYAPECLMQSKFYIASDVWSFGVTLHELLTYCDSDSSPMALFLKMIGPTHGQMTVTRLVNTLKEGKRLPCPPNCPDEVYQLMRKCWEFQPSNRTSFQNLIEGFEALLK
Experiment [2] deals with Tyrosine-protein kinase JAK2 (Homo sapiens, UniProt O60674). As to the kind of experiment: Inhibition of human JAK2 (808 to end residues) assessed as residual activity at 100 nM using KTFCGTPEYLAP as substrate after 40 mins in presence of [gamma33P]-ATP by scintillation counting based radiometric assay relative to control.
Sequence of Tyrosine-protein kinase JAK2 (O60674 whole entry): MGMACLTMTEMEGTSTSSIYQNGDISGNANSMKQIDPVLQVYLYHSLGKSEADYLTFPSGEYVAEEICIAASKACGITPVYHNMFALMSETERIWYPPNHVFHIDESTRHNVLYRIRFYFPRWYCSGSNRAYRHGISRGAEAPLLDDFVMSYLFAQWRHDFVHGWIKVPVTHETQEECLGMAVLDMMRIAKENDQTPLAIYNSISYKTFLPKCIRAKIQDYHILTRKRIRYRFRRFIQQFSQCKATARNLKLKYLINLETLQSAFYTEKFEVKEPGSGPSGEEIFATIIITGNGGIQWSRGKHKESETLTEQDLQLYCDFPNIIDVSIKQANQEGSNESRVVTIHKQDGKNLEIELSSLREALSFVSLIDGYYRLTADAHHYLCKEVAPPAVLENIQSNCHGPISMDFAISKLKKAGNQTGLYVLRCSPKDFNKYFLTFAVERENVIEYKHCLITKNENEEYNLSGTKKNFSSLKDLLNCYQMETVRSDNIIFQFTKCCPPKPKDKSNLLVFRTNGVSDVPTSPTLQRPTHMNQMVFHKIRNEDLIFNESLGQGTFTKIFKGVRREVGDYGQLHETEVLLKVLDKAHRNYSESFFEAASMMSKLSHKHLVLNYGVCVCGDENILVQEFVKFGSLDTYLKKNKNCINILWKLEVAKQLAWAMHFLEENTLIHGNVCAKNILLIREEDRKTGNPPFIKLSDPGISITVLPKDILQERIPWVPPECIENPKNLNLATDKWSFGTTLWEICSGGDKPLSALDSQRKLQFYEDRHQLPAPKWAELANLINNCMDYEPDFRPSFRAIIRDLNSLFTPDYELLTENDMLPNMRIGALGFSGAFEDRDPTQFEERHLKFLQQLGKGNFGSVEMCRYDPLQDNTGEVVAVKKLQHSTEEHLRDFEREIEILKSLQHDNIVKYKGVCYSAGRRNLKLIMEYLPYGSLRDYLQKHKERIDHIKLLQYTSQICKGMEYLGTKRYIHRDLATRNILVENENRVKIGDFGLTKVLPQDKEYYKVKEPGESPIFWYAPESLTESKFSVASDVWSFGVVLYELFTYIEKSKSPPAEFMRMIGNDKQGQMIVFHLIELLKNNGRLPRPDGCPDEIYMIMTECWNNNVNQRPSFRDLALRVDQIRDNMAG
Experiment [3] deals with T1, Tyrosine-protein kinase JAK3 (Homo sapiens) (UniProt P52333).
T1 sequence (whole entry): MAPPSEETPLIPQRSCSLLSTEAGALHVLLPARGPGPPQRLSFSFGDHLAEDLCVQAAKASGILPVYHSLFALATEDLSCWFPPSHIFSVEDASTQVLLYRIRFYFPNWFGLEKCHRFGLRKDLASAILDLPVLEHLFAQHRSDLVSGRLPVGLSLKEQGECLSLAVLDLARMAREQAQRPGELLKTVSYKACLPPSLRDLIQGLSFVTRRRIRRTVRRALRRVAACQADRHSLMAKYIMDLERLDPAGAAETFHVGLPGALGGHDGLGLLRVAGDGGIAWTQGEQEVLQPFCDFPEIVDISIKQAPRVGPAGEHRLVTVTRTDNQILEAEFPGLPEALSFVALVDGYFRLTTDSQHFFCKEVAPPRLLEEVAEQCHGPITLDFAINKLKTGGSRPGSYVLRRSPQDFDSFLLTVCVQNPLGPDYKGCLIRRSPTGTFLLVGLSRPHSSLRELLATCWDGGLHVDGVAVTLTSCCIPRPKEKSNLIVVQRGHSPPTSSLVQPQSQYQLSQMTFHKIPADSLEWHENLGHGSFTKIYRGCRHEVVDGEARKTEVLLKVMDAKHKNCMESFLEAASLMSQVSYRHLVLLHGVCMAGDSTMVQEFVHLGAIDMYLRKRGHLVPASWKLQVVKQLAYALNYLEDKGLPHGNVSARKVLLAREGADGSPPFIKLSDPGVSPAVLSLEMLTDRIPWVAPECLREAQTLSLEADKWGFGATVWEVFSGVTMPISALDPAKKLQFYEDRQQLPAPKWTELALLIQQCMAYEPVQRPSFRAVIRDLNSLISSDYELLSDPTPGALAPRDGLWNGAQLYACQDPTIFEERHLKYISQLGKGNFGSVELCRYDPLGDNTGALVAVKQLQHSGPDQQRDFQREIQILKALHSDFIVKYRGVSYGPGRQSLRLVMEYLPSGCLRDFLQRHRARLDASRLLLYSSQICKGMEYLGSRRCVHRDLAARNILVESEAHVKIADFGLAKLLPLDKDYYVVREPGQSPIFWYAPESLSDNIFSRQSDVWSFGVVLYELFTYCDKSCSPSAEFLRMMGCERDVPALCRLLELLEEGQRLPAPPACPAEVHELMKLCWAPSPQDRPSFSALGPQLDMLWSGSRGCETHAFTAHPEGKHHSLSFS
As to the kind of experiment: Inhibition of human JAK3 (781 to end residues) assessed as residual activity at 100 nM using GGEEEEYFELVKK as substrate after 40 mins in presence of [gamma33P]-ATP by scintillation counting based radiometric assay relative to control.

Experiment [4] deals with Receptor-type tyrosine-protein kinase FLT3 (Homo sapiens) (UniProt P36888). In words: Inhibition of human FLT3 (564 to end residues) assessed as residual activity at 100 nM using EAIYAAPFAKKK as substrate after 40 mins in presence of [gamma33P]-ATP by scintillation counting based radiometric assay relative to control.
Sequence of Receptor-type tyrosine-protein kinase FLT3 (Homo sapiens) (P36888 whole entry): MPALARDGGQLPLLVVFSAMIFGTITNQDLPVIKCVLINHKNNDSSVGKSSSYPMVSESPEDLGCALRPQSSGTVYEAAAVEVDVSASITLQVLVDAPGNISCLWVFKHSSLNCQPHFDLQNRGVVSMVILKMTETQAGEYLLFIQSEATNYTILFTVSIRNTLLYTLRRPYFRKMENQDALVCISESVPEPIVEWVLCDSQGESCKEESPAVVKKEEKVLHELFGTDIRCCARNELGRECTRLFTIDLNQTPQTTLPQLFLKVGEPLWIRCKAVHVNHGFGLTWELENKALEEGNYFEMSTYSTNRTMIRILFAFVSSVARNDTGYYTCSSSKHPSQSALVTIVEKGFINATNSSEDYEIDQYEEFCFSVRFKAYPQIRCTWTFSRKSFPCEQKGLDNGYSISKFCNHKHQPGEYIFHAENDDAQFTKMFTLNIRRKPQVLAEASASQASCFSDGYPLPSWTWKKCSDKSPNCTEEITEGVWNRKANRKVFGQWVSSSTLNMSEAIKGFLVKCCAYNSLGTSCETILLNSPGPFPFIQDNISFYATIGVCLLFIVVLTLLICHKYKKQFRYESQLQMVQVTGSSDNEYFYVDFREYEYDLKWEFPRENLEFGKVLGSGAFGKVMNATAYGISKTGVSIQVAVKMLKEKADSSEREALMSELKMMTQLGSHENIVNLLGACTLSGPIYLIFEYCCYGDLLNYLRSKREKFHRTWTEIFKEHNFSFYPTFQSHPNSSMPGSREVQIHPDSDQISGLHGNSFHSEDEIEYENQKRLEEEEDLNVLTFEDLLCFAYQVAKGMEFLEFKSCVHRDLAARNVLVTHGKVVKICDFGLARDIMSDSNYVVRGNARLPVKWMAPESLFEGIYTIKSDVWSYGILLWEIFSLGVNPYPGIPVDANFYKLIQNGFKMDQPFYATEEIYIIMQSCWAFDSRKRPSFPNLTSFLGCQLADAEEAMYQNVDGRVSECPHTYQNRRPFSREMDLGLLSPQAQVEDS

A word on the IC50: it is the point on the concentration scale where inhibition reaches its midpoint.

For `CCCCN1CCC(n2cc(-c3nc(Nc4ccc(N5CCN(C)CC5)c(F)c4)ncc3F)cn2)CC1`, the IC50 amounted to 240 nM in the experiment with MV4-11 and 180 nM with MOLM-13. Besides, the Activity in experiment [1] was 68%; in experiment [2], 19%; in experiment [3], 32%; in experiment [4], 13%.

In the case of `CCCCn1cc(-c2nc(Nc3ccc(N4CCN(C)CC4)c(F)c3)ncc2F)cn1`, the IC50 was determined as 27 nM in the experiment with MV4-11 and 540 nM with MOLM-13. For the same compound, the Activity in experiment [1] stood at 49%; in experiment [2], 15%; in experiment [3], 41%; in experiment [4], 11%.

With `CCN(CCN1CCOCC1)C1CCN(c2ccc(Nc3ncc(C)c(-c4cnn(C(C)C)c4)n3)cc2F)CC1`, the half-inhibitory concentration (IC50) was 43 nM in the experiment with MV4-11 and 150 nM in the experiment on MOLM-13. For the same compound, the Activity in experiment [1] amounted to 23%; in experiment [2], 11%; in experiment [3], 33%; in experiment [4] it was 7%.
